Measurements from PubChem BioAssay AID2060909 (Molecular Pharmacology Branch, DTP, NCI, 2025).

Tested on: 362531-283-R-J2-PDC complex spheroid viability
Assay: Anticancer human tumor 362531-283-R-J2-PDC patient-derived colon adenocarcinoma cell line growth inhibition [RAS]
Conditions: for IC50: curve of first compound; for viability, T/C: stronger effect = lower value; active = viability on the fitted dose curve at most 10% of control; inactive = the rest
How it was run: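 Agents were tested in combination matrices in half-log decrements from a top concentration at or near clinical Cmax (10 microM if undetermined). Targets were multi-cell spheroids of tumour lines plus HUVEC and MSC stromal cells.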

[1] = second compound 0.0316 µM, first compound 0.0316 µM
[2] = second compound 0.0316 µM, first compound 0.1 µM
[3] = second compound 0.0316 µM, first compound 0.316 µM
[4] = second compound 0.0316 µM, first compound 1 µM
[5] = second compound 0.0316 µM, first compound 3.16 µM
[6] = second compound 0.0316 µM, first compound 10 µM
[7] = second compound 0.1 µM, first compound 0.0316 µM
[8] = second compound 0.1 µM, first compound 0.1 µM
[9] = second compound 0.1 µM, first compound 0.316 µM
[10] = second compound 0.1 µM, first compound 1 µM
[11] = second compound 0.1 µM, first compound 3.16 µM
[12] = second compound 0.1 µM, first compound 10 µM
[13] = second compound 0.316 µM, first compound 0.0316 µM
[14] = second compound 0.316 µM, first compound 0.1 µM
[15] = second compound 0.316 µM, first compound 0.316 µM
[16] = second compound 0.316 µM, first compound 1 µM
[17] = second compound 0.316 µM, first compound 3.16 µM
[18] = second compound 0.316 µM, first compound 10 µM
[19] = second compound 1 µM, first compound 0.0316 µM
[20] = second compound 1 µM, first compound 0.1 µM
[21] = second compound 1 µM, first compound 0.316 µM
[22] = second compound 1 µM, first compound 1 µM
[23] = second compound 1 µM, first compound 3.16 µM
[24] = second compound 1 µM, first compound 10 µM
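Also: spheroids exposed to the agents for 7 days before readout.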
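For viability, T/C in this document: luminescence viability as percent of DMSO vehicle control wells.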

CC1(O)CCCC1n1c(=O)c(C(F)F)cc2cnc(NC3CCN(S(C)(=O)=O)CC3)nc21 (stereo unspecified) + CCn1c(-c2cccnc2C(C)OC)c2c3cc(ccc31)N1CCOC(CC(NC(=O)C(C(C)C)N(C)C(=O)C3(F)CCN(C(=O)C#CC(C)(C)N(C)C)CC3)C(=O)N3CCCC(N3)C(=O)OCC(C)(C)C2)C1
4.98 µM: IC50 (second compound 0.03 µM)
6.21 µM: IC50 (second compound 0.003 µM)
> 10 µM: IC50 (second compound 0.000949 µM) | IC50 (second compound 0.00949 µM) | IC50 (second compound 0.0949 µM) | IC50 (second compound 0.3 µM)
inactive: viability, T/C (second compound 0.000949 µM, first compound 0.0316 µM) 97.1% | viability, T/C (second compound 0.000949 µM, first compound 0.1 µM) 113% | viability, T/C (second compound 0.000949 µM, first compound 0.316 µM) 92.2% | viability, T/C (second compound 0.000949 µM, first compound 1 µM) 70% | viability, T/C (second compound 0.000949 µM, first compound 3.16 µM) 55% | viability, T/C (second compound 0.000949 µM, first compound 10 µM) 73.7% | viability, T/C (second compound 0.003 µM, first compound 0.0316 µM) 102% | viability, T/C (second compound 0.003 µM, first compound 0.1 µM) 92.1% | viability, T/C (second compound 0.003 µM, first compound 0.316 µM) 89.8% | viability, T/C (second compound 0.003 µM, first compound 1 µM) 72% | viability, T/C (second compound 0.003 µM, first compound 3.16 µM) 57.9% | viability, T/C (second compound 0.003 µM, first compound 10 µM) 44.6% | viability, T/C (second compound 0.00949 µM, first compound 0.0316 µM) 108% | viability, T/C (second compound 0.00949 µM, first compound 0.1 µM) 110% | viability, T/C (second compound 0.00949 µM, first compound 0.316 µM) 84% | viability, T/C (second compound 0.00949 µM, first compound 1 µM) 72.4% | viability, T/C (second compound 0.00949 µM, first compound 3.16 µM) 50.5% | viability, T/C (second compound 0.00949 µM, first compound 10 µM) 53.9% | viability, T/C (second compound 0.03 µM, first compound 0.0316 µM) 103% | viability, T/C (second compound 0.03 µM, first compound 0.1 µM) 97% | viability, T/C (second compound 0.03 µM, first compound 0.316 µM) 77.7% | viability, T/C (second compound 0.03 µM, first compound 1 µM) 63% | viability, T/C (second compound 0.03 µM, first compound 3.16 µM) 63.9% | viability, T/C (second compound 0.03 µM, first compound 10 µM) 38.9% | viability, T/C (second compound 0.0949 µM, first compound 0.0316 µM) 102% | viability, T/C (second compound 0.0949 µM, first compound 0.1 µM) 91% | viability, T/C (second compound 0.0949 µM, first compound 0.316 µM) 94.5% | viability, T/C (second compound 0.0949 µM, first compound 1 µM) 58.9% | viability, T/C (second compound 0.0949 µM, first compound 3.16 µM) 53.9% | viability, T/C (second compound 0.0949 µM, first compound 10 µM) 54.7% | viability, T/C (second compound 0.3 µM, first compound 0.0316 µM) 100% | viability, T/C (second compound 0.3 µM, first compound 0.1 µM) 87.4% | viability, T/C (second compound 0.3 µM, first compound 0.316 µM) 87.7% | viability, T/C (second compound 0.3 µM, first compound 1 µM) 66% | viability, T/C (second compound 0.3 µM, first compound 3.16 µM) 56.9% | viability, T/C (second compound 0.3 µM, first compound 10 µM) 51.4%

C[C@@H](NC(=O)c1ncnc(N)c1Cl)c1ncc(C(=O)Nc2cc(C(F)(F)F)c(Cl)cn2)s1 + C=CC(=O)N1CCN(c2nc(OCC3CCCN3C)nc3c(F)c(-c4nc(N)cc(C)c4C(F)(F)F)c(Cl)cc23)C(C)C1
> 10 µM: IC50 (second compound 0.00316 µM) | IC50 (second compound 0.01 µM) | IC50 (second compound 0.0316 µM) | IC50 (second compound 0.1 µM) | IC50 (second compound 0.316 µM) | IC50 (second compound 1 µM)
inactive: viability, T/C (second compound 0.00316 µM, first compound 0.0316 µM) 102% | viability, T/C (second compound 0.00316 µM, first compound 0.1 µM) 109% | viability, T/C (second compound 0.00316 µM, first compound 0.316 µM) 115% | viability, T/C (second compound 0.00316 µM, first compound 1 µM) 99.1% | viability, T/C (second compound 0.00316 µM, first compound 3.16 µM) 84.9% | viability, T/C (second compound 0.00316 µM, first compound 10 µM) 63.8% | viability, T/C (second compound 0.01 µM, first compound 0.0316 µM) 103% | viability, T/C (second compound 0.01 µM, first compound 0.1 µM) 95% | viability, T/C (second compound 0.01 µM, first compound 0.316 µM) 93.1% | viability, T/C (second compound 0.01 µM, first compound 1 µM) 97.6% | viability, T/C (second compound 0.01 µM, first compound 3.16 µM) 87.3% | viability, T/C (second compound 0.01 µM, first compound 10 µM) 67.4% | viability, T/C [1] 107% | viability, T/C [2] 99.7% | viability, T/C [3] 98.6% | viability, T/C [4] 105% | viability, T/C [5] 91.2% | viability, T/C [6] 63.4% | viability, T/C [7] 104% | viability, T/C [8] 112% | viability, T/C [9] 97.9% | viability, T/C [10] 96.3% | viability, T/C [11] 99.9% | viability, T/C [12] 60.3% | viability, T/C [13] 103% | viability, T/C [14] 95.2% | viability, T/C [15] 100% | viability, T/C [16] 103% | viability, T/C [17] 102% | viability, T/C [18] 67.2% | viability, T/C [19] 107% | viability, T/C [20] 104% | viability, T/C [21] 99.3% | viability, T/C [22] 106% | viability, T/C [23] 97.7% | viability, T/C [24] 63.6%

NC1c2ccccc2OC12CCN(c1cnc3c(N4CCCc5ncccc54)n[nH]c3n1)CC2 (stereo unspecified) + C#Cc1c(F)ccc2cc(O)cc(-c3ncc4c(N5CC6CCC(C5)N6)nc(OCC56CCCN5CC(F)C6)nc4c3F)c12
0.0358 µM: IC50 (second compound 1 µM)
0.175 µM: IC50 (second compound 0.1 µM)
0.354 µM: IC50 (second compound 0.0316 µM)
inactive: viability, T/C [1] 98.7% | viability, T/C [2] 73.2% | viability, T/C [3] 60.9% | viability, T/C [4] 10.6% | viability, T/C [7] 79.7% | viability, T/C [8] 78.1% | viability, T/C [9] 20.7% | viability, T/C [13] 84.2% | viability, T/C [14] 38.8% | viability, T/C [19] 54.7% | viability, T/C [20] 12.8% | viability, T/C (second compound 3.16 µM, first compound 0.0316 µM) 25.5% | viability, T/C (second compound 3.16 µM, first compound 0.1 µM) 9.78% | viability, T/C (second compound 10 µM, first compound 0.0316 µM) 11.1%
0.0752 µM: IC50 (second compound 0.316 µM)
< 0.0316 µM: IC50 (second compound 3.16 µM) | IC50 (second compound 10 µM)
active: viability, T/C [5] 5.23% | viability, T/C [6] 1.84% | viability, T/C [10] 7.72% | viability, T/C [11] 6.1% | viability, T/C [12] 1.33% | viability, T/C [15] 9.03% | viability, T/C [16] 6.67% | viability, T/C [17] 5.3% | viability, T/C [18] 1.76% | viability, T/C [21] 10.8% | viability, T/C [22] 6.95% | viability, T/C [23] 5.9% | viability, T/C [24] 1.83% | viability, T/C (second compound 3.16 µM, first compound 0.316 µM) 9.64% | viability, T/C (second compound 3.16 µM, first compound 1 µM) 6.45% | viability, T/C (second compound 3.16 µM, first compound 3.16 µM) 5.47% | viability, T/C (second compound 3.16 µM, first compound 10 µM) 1.34% | viability, T/C (second compound 10 µM, first compound 0.1 µM) 6.83% | viability, T/C (second compound 10 µM, first compound 0.316 µM) 5.98% | viability, T/C (second compound 10 µM, first compound 1 µM) 5.62% | viability, T/C (second compound 10 µM, first compound 3.16 µM) 2.9% | viability, T/C (second compound 10 µM, first compound 10 µM) 1.51%
